pIC50: −log10 of the molar value.
Legend:
Colo205 cells = experiment: Cell-based proliferation assay for determination of GI50 values (CyQUANT); set-up: species or system human
Summary of the method: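 Colo205 cells in RPMI 1640 with 5% FBS, seeded 5000/well and grown 24 h at 37 °C. Exposure to compound lasted 96 h, with growth read by CyQUANT. GI50 = concentration giving 50% growth inhibition, from dose-response curves.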

[1] = target: HDAC1 enzyme (recombinant GST-HDAC1) (Homo sapiens (Human), UniProt Q13547); experiment: In vitro HDAC assay for determination of IC50 values (BIOMOL fluorescent-based HDAC activity assay); format: biochemical; settings: Flur de lys substrate, 2 h room temperature, read-out: IC50 (HDAC 1)
HDAC1 enzyme (recombinant GST-HDAC1), sequence (Q13547 whole entry): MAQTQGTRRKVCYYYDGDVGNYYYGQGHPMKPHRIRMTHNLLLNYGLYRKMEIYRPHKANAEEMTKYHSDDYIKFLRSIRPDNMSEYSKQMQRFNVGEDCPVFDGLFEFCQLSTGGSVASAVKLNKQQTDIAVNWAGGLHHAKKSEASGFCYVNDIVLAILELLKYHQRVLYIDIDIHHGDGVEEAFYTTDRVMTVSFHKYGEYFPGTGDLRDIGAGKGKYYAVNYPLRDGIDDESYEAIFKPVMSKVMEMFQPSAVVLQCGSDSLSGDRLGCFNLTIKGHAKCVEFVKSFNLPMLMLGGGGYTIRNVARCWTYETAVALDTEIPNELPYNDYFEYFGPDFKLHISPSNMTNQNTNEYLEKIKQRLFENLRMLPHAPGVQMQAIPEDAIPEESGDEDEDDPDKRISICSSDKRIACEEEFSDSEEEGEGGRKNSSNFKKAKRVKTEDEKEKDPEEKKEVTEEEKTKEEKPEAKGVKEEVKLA
Summary of the method: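 Recombinant human GST-HDAC1, baculovirus-expressed in SF9 cells and glutathione-purified, tested with a fluorogenic deacetylase substrate; Fluor de Lys developer added for 10 min. Fluorescence at 360 nm excitation/460 nm emission; IC50 fitted from a concentration series.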

[2] = Homo sapiens, COLO 205, 96 h treatment
[3] = Homo sapiens, COLO 205, 96 h, 96 h treatment

Row | SMILES | GI50 (Colo205 cells; [2]) [µM] | pIC50 [1] | GI50 (Colo205 cells; [3]) [µM] | GI50 (Colo205 cells; 96 h treatment) [µM]
1 | CCN(CC)Cc1c(-c2ccccc2)nc2cc(/C=C/C(=O)NO)ccn12 [Compound 51, 3-(3-Diethylaminomethyl-2-phenyl-imidazo[1,2-a]pyridin-7-yl)-N-hydroxy-acrylamide] | 1.1 | 6.70 | – | –
2 | CCN(CCC(C)C)Cc1c(C(C)(C)C)nc2cc(/C=C/C(=O)NO)ccn12 [Compound 89, 3-(2-tert-Butyl-3-{[ethyl-(3-methyl-butyl)-amino]-methyl}-imidazo[1,2-a]pyridin-7-yl)-N-hydroxy-acrylamide] | – | 7.22 | 0.35 | –
3 | CCCCCCc1nc2cc(/C=C/C(=O)NO)ccn2c1NCCC(=O)NCCN(C)C [Compound 20, 3-{3-[2-(2-Dimethylamino-ethylcarbamoyl)-ethylamino]-2-hexyl-imidazo[1,2-a]pyridin-7-yl}-N-hydroxy-acrylamide] | 28 | 7.00 | – | –
4 | CCCCN(CC)Cc1c(C(C)(C)C)nc2cc(/C=C/C(=O)NO)ccn12 [Compound 85, 3-{2-tert-Butyl-3-[(butyl-ethyl-amino)-methyl]-imidazo[1,2-a]pyridin-7-yl}-N-hydroxy-acrylamide] | 0.68 | 7.22 | – | –
5 | COCCNc1c(CC(C)(C)C)nc2ccc(/C=C/C(=O)NO)cn12 [Compound 8, 3-[2-(2,2-Dimethyl-propyl)-3-(2-methoxy-ethylamino)-imidazo[1,2-a]pyridin-6-yl]-N-hydroxy-acrylamide] | 14 | 6.00 | – | –
6 | CCN(CC)CCNCc1c(C(C)(C)C)nc2cc(/C=C/C(=O)NO)ccn12 [Compound 43, 3-{2-tert-Butyl-3-[(2-diethylamino-ethylamino)-methyl]-imidazo[1,2-a]pyridin-7-yl}-N-hydroxy-acrylamide] | 34 | 5.70 | – | –
7 | CCCCCc1nc2ccc(/C=C/C(=O)NO)cn2c1NCCOC [Compound 9, N-Hydroxy-3-[3-(2-methoxy-ethylamino)-2-pentyl-imidazo[1,2-a]pyridin-6-yl]-acrylamide] | 5.3 | 5.89 | – | –
8 | CCN(CCOC)Cc1c(-c2ccccc2)nc2cc(/C=C/C(=O)NO)ccn12 [Compound 56, 3-(3-{[Ethyl-(2-methoxy-ethyl)-amino]-methyl}-2-phenyl-imidazo[1,2-a]pyridin-7-yl)-N-hydroxy-acrylamide] | 9 | 5.80 | – | –
9 | CCCCc1nc2cc(/C=C/C(=O)NO)ccn2c1CNC(C)(C)C [Compound 73, 3-[2-Butyl-3-(tert-butylamino-methyl)-imidazo[1,2-a]pyridin-7-yl]-N-hydroxy-acrylamide] | – | 7.70 | 0.14 | –
10 | CCC(CC)CN(CC)Cc1c(C(C)(C)C)nc2cc(/C=C/C(=O)NO)ccn12 [Compound 93, 3-(2-tert-Butyl-3-{[ethyl-(2-ethyl-butyl)-amino]-methyl}-imidazo[1,2-a]pyridin-7-yl)-N-hydroxy-acrylamide] | 0.97 | 6.72 | – | –
11 | CCCN(Cc1c(C)nc2cc(C=CC(=O)NO)ccn12)CC(C)(C)C [Compound 110, 3-(3-{[(2,2-Dimethyl-propyl)-propyl-amino]-methyl}-2-methyl-imidazo[1,2a]pyridin-7-yl)-N-hydroxy-acrylamide] | – | 6.89 | – | 0.7
12 | COc1cc(Nc2c(CCc3ccccc3)nc3ccc(/C=C/C(=O)NO)cn23)cc(OC)c1OC [Compound 1, N-Hydroxy-3-[2-phenethyl-3-(3,4,5-trimethoxy-phenylamino)-imidazo[1,2-a]pyridin-6-yl]-acrylamide] | 2.1 | 6.82 | – | –
13 | CCC(CC)CN(CC)Cc1c(C)nc2cc(/C=C/C(=O)NO)ccn12 [Compound 101, 3-(3-{[Ethyl-(2-ethyl-butyl)-amino]-methyl}-2-methyl-imidazo[1,2-a]pyridin-7-yl)-N-hydroxy-acrylamide] | 0.05 | 8.00 | – | –
14 | CCCCNCc1c(C)nc2cc(/C=C/C(=O)NO)ccn12 [Compound 42, 3-(3-Butylaminomethyl-2-methyl-imidazo[1,2-a]pyridin-7-yl)-N-hydroxy-acrylamide] | 1.5 | 6.80 | – | –
15 | CCCCN(CC)Cc1c(C)nc2cc(/C=C/C(=O)NO)ccn12 [Compound 99, 3-{3-[(Butyl-ethyl-amino)-methyl]-2-methyl-imidazo[1,2-a]pyridin-7-yl}-N-hydroxy-acrylamide] | 0.18 | 7.52 | – | –
16 | O=C(C=Cc1ccc2nc(CCc3ccccc3)c(NCc3ccc4c(c3)OCO4)n2c1)NO [Compound 2, 3-{3-[(Benzo[1,3]-dioxol-5-ylmethyl)-amino]-2-phenethyl-imidazo[1,2-a]pyridin-6-yl}-N-hydroxyacrylamide] | 3.9 | 6.14 | – | –
17 | CCCCCCc1nc2cc(/C=C/C(=O)NO)ccn2c1NCCC(=O)N(C)C(C)C [Compound 37, 3-{2-Hexyl-3-[2-(isopropyl-methyl-carbamoyl)-ethylamino]-imidazo[1,2-a]pyridin-7-yl}-N-hydroxy-acrylamide] | 5.3 | 6.23 | – | –

The next lines start with results.

Row | GI50 (Colo205 cells; [2]) [µM] | pIC50 [1] | GI50 (Colo205 cells; [3]) [µM] | SMILES | GI50 (Colo205 cells; 96 h treatment) [µM]
18 | 0.49 | 7.52 | – | CCN(CCC(C)C)Cc1c(-c2ccccc2)nc2cc(/C=C/C(=O)NO)ccn12 [Compound 121, 3-(3-{[Ethyl-(3-methyl-butyl)-amino]-methyl}-2-phenyl-imidazo[1,2-a]pyridin-7-yl)-N-hydroxy-acrylamide] | –
19 | 0.16 | 7.40 | – | CCCCN(CC)Cc1c(CCC(C)C)nc2cc(/C=C/C(=O)NO)ccn12 [Compound 141, 3-[3-[(Butyl-ethyl-amino)-methyl]-2-(3-methyl-butyl)-imidazo[1,2a]pyridin-7-yl]-N-hydroxy-acrylamide] | –
20 | 0.07 | 7.70 | – | CCCCCc1nc2cc(/C=C/C(=O)NO)ccn2c1CNC(C)(C)C [Compound 128, 3-[3-(tert-Butylamino-methyl)-2-pentyl-imidazo[1,2-a]pyridin-7-yl]-N-hydroxy-acrylamide] | –
21 | 44 | 5.13 | – | CCN(Cc1c(-c2ccccc2)nc2cc(/C=C/C(=O)NO)ccn12)CC(F)(F)F [Compound 105, 3-(3-{[Ethyl-(2,2,2-trifluoro-ethyl)-amino]-methyl}-2-phenyl-imidazo [1,2-a]pyridin-7-yl)-N-hydroxy-acrylamide] | –
22 | 0.18 | 7.30 | – | CCCCN(CC)Cc1c(CC)nc2cc(/C=C/C(=O)NO)ccn12 [Compound 138, 3-{3-[(Butyl-ethyl-amino)-methyl]-2-ethyl-imidazo[1,2-a]pyridin-7-yl}-N-hydroxy-acrylamide] | –
23 | 0.52 | 7.30 | – | CCN(CCC(C)(C)C)Cc1c(-c2ccccc2)nc2cc(/C=C/C(=O)NO)ccn12 [Compound 122, 3-(3-{[(3,3-Dimethyl-butyl)-ethyl-amino]-methyl}-2-phenyl-imidazo[1,2-a]pyridin-7-yl)-N-hydroxy-acrylamide] | –
24 | 0.15 | 7.52 | – | CCCCCc1nc2cc(/C=C/C(=O)NO)ccn2c1CN(CC)CCC(C)(C)C [Compound 131, 3-(3-{[(3,3-Dimethyl-butyl)-ethyl-amino]-methyl}-2-pentyl-imidazo[1,2a]pyridin-7-yl)-N-hydroxy-acrylamide] | –
25 | 0.16 | 7.40 | – | CCCCN(CC)Cc1c(CCC)nc2cc(/C=C/C(=O)NO)ccn12 [Compound 132, 3-{3-[(Butyl-ethylamino)-methyl]-2-propyl-imidazo[1,2-a]pyridin-7-yl}-N-hydroxy-acrylamide] | –

Source: US8648092B2, “Imidazo[1,2-a]pyridine derivatives: preparation and pharmaceutical applications” (MEI Pharma, priority 2005, dated 2014)
